According to US20030138394A1, “Cosmetic and/or pharmaceutical preparations that contain an extract of the plant argania spinosa” (priority 2000, published 2003):

System: human adipocytes
Test: Lipolysis activity on human adipocytes (released glycerol)
Assay type: cell-based
Conditions: 30 mM; 90 minutes at 37° C.; reference medium = 0
Method: Method: The adipocytes were isolated from human subcutaneous tissue, as corresponds to the general technique in accordance with Rodbell. The extract as in
Example 1 or the comparison substances are dissolved in the reference medium and then brought into contact with the isolated adipocytes for 90 minutes at 37° C. In each case one adipocyte preparations [sic] was analyzed. The percentage increase in released glycerol in the supernatant of the medium was determined by means of spectrophotometry in accordance with the method by Carpéné et al. The reference administered was the medium without substance to be analyzed and was set equal to 0.

`Cn1c(=O)c2c(ncn2C)n(C)c1=O` [Caffeine] was tested, and the “% increase in released glycerol” value was 181%.
